Laboratory results: publication PMC5896744 (The Biochemical journal, 2017)

Key:
Assay in all cases: SPR solution competition
Type in all cases: binding
PKA hRIα CNB-B (234–381) [1] = target: PKA hRIα CNB-B (234–381) (Homo sapiens, UniProt P10644, A336T/G316R)
PKA hRIα CNB-A (115–274) [2] = target: PKA hRIα CNB-A (115–274) (Homo sapiens, UniProt P10644, T192R)
PKA hRIα CNB-B (234–381) [3] = target: PKA hRIα CNB-B (234–381) (Homo sapiens, UniProt P10644, A336T/G316R/V315L)
PKA hRIα CNB-B (234–381) [4] = target: PKA hRIα CNB-B (234–381) (Homo sapiens, UniProt P10644, G316R)
PKA hRIα CNB-B (234–381) [5] = target: PKA hRIα CNB-B (234–381) (Homo sapiens, UniProt P10644, V315L)
PKA hRIα CNB-A (115–274) [6] = target: PKA hRIα CNB-A (115–274) (Homo sapiens, UniProt P10644, A212T)
PKA hRIα CNB-B (234–381) [7] = target: PKA hRIα CNB-B (234–381) (Homo sapiens, UniProt P10644, G316R/V315L)
PKA hRIα CNB-B (234–381) [8] = target: PKA hRIα CNB-B (234–381) (Homo sapiens, UniProt P10644, A336T)
PKA hRIα CNB-A (115–274) [9] = target: PKA hRIα CNB-A (115–274) (Homo sapiens, UniProt P10644, A212T/T192R)
PKA hRIα CNB-B (234–381) [10] = target: PKA hRIα CNB-B (234–381) (Homo sapiens, UniProt P10644)
PKA hRIα CNB-A (115–274) [11] = target: PKA hRIα CNB-A (115–274) (Homo sapiens, UniProt P10644)

EC50 (PKA hRIα CNB-B (234–381) [1]) [nM] | EC50 (PKA hRIα CNB-A (115–274) [2]) [nM] | EC50 (PKA hRIα CNB-B (234–381) [3]) [nM] | EC50 (PKA hRIα CNB-B (234–381) [4]) [nM] | EC50 (PKA hRIα CNB-B (234–381) [5]) [nM] | EC50 (PKA hRIα CNB-A (115–274) [6]) [nM] | EC50 (PKA hRIα CNB-B (234–381) [7]) [nM] | EC50 (PKA hRIα CNB-B (234–381) [8]) [nM] | EC50 (PKA hRIα CNB-A (115–274) [9]) [nM] | EC50 (PKA hRIα CNB-B (234–381) [10]) [nM] | EC50 (PKA hRIα CNB-A (115–274) [11]) [nM] | SMILES
0.4 ± 0.1 | 1530 ± 53 | 0.6 ± 0.3 | 98 ± 41 | 678 ± 100 | 83 ± 33 | 66 ± 2 | 2 ± 0.1 | 24 ± 5 | – | – | Nc1nc2c(ncn2[C@@H]2O[C@@H]3COP(=O)(O)O[C@H]3[C@H]2O)c(=O)[nH]1 [cGMP]
– | 156 ± 5 | – | 25 ± 9 | – | – | – | – | – | 114 ± 51 | 273 ± 16 | O=c1[nH]cnc2c1ncn2[C@@H]1O[C@@H]2COP(=O)(O)O[C@H]2[C@H]1O [cIMP]
